Measured values taken from patent US4841054A, “2,6-dimethyl-3,5-dimethoxycarbonyl-4-(5'-tri methylsilyl-2'-furyl)-1,4-dihydropyridine” (priority 1988, dated 1989).
“Also recorded” adds a separate entry of the source.

What was measured:
[1] = test system: spontaneously hypertensive rats; test: Effect on arterial pressure in spontaneously hypertensive rats, single administration; type: in vivo; details: for hypotensive effect by the 6th hour, comparison in words: compound of the present invention vs Nifedipine
[2] = in vivo; details: mouse, in vivo, ip
Procedure: (§1) The mean lethal dose (LD50) was determined by the Litchfield and Wilcoxon method.

[3] = test system: white nondescript mice; test: in vivo; details: for toxicity in words: conclusion from Table 2
Procedure: as §1

[4] = literature, cited from earlier work
[5] = test system: spontaneously hypertensive rats; test: Effect on heart rate in spontaneously hypertensive rats; type: in vivo; details: for effect on heart rate: 10 and 20 mg/kg, peroral, SHR
Procedure: (§2) In experiments on spontaneously hypertensive rats the compound according to the present invention upon a single administration (10 mg/kg in stomach) caused reduction of systolic arterial pressure. The maximum hypotensive effect (by 21 %) was observed by the 6-th hour after administration of the compound, after 24 hours the pressure was reduced by 17 % as compared to the initial value. A […] administration of the compound for 5 days in the dose of 10 mg/kg into the stomach caused the maximum reduction of the pressure (by 22 %) on the 6-th day, i.e., one day after discontinuation of administration of the compound. A reduced pressure was observed on the 3-rd day (by 10 %) after discontinuation of the administration.

[6] = test system: spontaneously hypertensive rats; test: Effect on systolic arterial pressure in spontaneously hypertensive rats, administration for 5 days; type: in vivo; details: 10 mg/kg into the stomach for 5 days
Procedure: as §2

[7] = Solubility; type: physicochemical
[8] = Stability by UV spectrum (solid in the light; alcoholic solution)
[9] = 10 mg/kg, single administration in stomach

| SMILES | Hypotensive effect, %, after 48 hrs ([1]; 10 mg/kg) [%] | Hypotensive effect, %, after 1 hr [1, 9] [%] | Hypotensive effect, %, after 6 hrs [1, 9] [%] | Hypotensive effect, %, after 24 hrs [1, 9] [%] | LD50 at 240 h [2] [mg/kg] | toxicity in words [3] | hypotensive effect by the 6th hour, comparison in words [1] | hypotensive effect / systolic pressure 24 hours after administration, in words [1] | effect on heart rate [5] | also measured |
| --- | --- | --- | --- | --- | --- | --- | --- | --- | --- | --- |
| COC(=O)C1=C(C)NC(C)=C(C(=O)OC)C1c1ccco1 [Analog, 2,6-dimethyl-3,5-dimethoxycarbonyl-4-(2'-furyl)-1,4-dihydropyridine] | 0 | 12 | 7 | 0 | 2900 | low toxicity | – | – | – | hypotensive properties, comparison in words ([1]; vs the compound of the present invention): subtantially lower than those of the compound of the present invention; hypotensive activity compared with Nifedipine ([4]; vs Nifedipine): considerably lower than that of Nifedipine |
| COC(=O)C1=C(C)NC(C)=C(C(=O)OC)C1c1ccccc1[N+](=O)[O-] [Nifedipine, 2,6-dimethyl-3,5-dimethoxycarbonyl-4-(O-nitrophenyl)-1,4-dihydropyridine] | 0 | 34 | 23 | 0 | – | – | same hypotensive effect | systolic pressure returned to the initial level | tachycardia | hypotensive effect by the 1st hour, comparison in words ([1]; 1 hour after administration, vs the compound of the present invention): superior to the compound of the present invention; hypotensive and coronarodilating effects [4]: hypotensive and coronarodilating effects |
| COC(=O)C1=C(C)NC(C)=C(C(=O)OC)C1c1ccc([Si](C)(C)C)o1 [Of this invention, 2,6-dimethyl-3,5-dimethoxycarbonyl-4-(5'-trimethylsilyl-2'-furyl)-1,4-dihydropyridine] | – | 13 | 21 | 17 | > 1000 | low toxicity as compared to Nifedipine | same hypotensive effect | still produced the hypotensive effect | either lowers the heart rate or does not change it | Hypotensive effect, %, after 6 hrs ([1]; 20 mg/kg): 30%; Hypotensive effect, %, after 24 hrs ([1]; 20 mg/kg): 39%; Hypotensive effect, %, after 48 hrs ([1]; 20 mg/kg): 28%; duration of hypotensive effect, in words ([1]; vs Nifedipine and/or analog, listed as compound according to the present invention): superior over Nifedipine as regards the duration of its effect; also recorded: more lasting hypotensive effect than the analog and Nifedipine; reduced pressure on the 3rd day after discontinuation ([6]; 3rd day after discontinuation): 10%; maximum reduction of the pressure ([6]; on the 6th day (one day after discontinuation)): 22%; effect on heart rate, comparison in words ([5]; vs Nifedipine): less pronounced effect on the heart rate; death of the mice ([3]; doses of up to 1,000 mg/kg, intraperitoneal): did not cause death of the mice; solubility in methanol, ethanol, chloroform, acetone ([7]; methanol, ethanol, chloroform, acetone): well soluble; solubility in water ([7]; water): substantially insoluble; period during which UV spectrum remained unchanged in alcoholic solution ([8]; alcoholic solution, 5×10^-5 mol): 6 months; stability in the crystalline state and as solutions ([8]; crystalline state and solutions): stable; UV spectrum upon storage of the solid in the light ([8]; solid, in the light, within a year's period): does not change its UV spectrum within a year's period |
